# According to patent US10704056B2, “Constitutively active ABA receptor mutants” (The Regents of the University of California, priority 2011, dated 2020):
# T1: PYR1 (Arabidopsis thaliana, UniProt O49686)
# T1 construct: expressed in transfected cells; host or cells: S. cerevisiae strain Y190
# T1 sequence (O49686 1-191): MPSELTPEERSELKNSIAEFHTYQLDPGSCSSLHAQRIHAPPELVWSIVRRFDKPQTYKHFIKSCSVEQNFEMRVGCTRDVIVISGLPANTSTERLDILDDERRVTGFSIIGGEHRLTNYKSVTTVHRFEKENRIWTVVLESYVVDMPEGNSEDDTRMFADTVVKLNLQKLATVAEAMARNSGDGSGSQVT
# T1 sequence (Q9CAJ0 23-511 partner): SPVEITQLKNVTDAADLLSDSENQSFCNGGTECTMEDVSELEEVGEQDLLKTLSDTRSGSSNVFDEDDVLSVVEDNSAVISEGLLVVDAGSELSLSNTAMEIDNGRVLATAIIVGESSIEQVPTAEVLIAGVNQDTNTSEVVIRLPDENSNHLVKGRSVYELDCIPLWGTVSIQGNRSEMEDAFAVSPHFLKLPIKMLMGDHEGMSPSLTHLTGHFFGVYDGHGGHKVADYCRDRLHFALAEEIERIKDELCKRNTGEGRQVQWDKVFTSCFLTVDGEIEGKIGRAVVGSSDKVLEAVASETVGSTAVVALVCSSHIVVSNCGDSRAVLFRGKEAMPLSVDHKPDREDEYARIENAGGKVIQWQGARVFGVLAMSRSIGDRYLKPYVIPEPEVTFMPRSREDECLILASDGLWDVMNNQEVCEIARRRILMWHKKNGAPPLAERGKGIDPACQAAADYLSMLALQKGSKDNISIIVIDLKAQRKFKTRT
# T2: PYR1 (Arabidopsis thaliana, UniProt O49686)
# T2 sequence (O49686 1-191): T1 sequence (O49686 1-191)
# T3: PYL1 (Arabidopsis thaliana, UniProt Q8VZS8)
# T3 sequence (Q8VZS8 1-221): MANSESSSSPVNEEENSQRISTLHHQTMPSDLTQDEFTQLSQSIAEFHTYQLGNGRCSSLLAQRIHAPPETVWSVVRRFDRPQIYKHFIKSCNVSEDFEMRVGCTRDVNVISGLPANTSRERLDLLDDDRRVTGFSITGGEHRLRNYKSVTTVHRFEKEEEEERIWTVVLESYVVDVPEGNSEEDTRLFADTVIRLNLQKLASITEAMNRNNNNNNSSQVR
# T4: PYL2 (Arabidopsis thaliana, UniProt O80992)
# T4 sequence (O80992 1-190): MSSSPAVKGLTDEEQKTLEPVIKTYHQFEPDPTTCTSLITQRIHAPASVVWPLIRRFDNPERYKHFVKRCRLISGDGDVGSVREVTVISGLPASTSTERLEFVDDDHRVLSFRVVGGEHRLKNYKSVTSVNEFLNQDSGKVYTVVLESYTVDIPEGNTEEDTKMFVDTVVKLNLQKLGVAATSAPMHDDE
# T5: PYL5 (Arabidopsis thaliana, UniProt Q9FLB1)
# T5 sequence (Q9FLB1 1-203): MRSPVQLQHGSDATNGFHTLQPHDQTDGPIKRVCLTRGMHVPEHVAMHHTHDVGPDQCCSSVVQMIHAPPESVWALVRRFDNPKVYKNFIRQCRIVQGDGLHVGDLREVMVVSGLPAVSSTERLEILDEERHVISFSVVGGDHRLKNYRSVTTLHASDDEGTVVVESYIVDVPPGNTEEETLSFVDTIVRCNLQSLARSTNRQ
# T6: HAB1 (Arabidopsis thaliana, UniProt Q9CAJ0)
# T6 construct: expressed in transfected cells; host or cells: S. cerevisiae strain Y190
# T6 sequence (Q9CAJ0 1-511): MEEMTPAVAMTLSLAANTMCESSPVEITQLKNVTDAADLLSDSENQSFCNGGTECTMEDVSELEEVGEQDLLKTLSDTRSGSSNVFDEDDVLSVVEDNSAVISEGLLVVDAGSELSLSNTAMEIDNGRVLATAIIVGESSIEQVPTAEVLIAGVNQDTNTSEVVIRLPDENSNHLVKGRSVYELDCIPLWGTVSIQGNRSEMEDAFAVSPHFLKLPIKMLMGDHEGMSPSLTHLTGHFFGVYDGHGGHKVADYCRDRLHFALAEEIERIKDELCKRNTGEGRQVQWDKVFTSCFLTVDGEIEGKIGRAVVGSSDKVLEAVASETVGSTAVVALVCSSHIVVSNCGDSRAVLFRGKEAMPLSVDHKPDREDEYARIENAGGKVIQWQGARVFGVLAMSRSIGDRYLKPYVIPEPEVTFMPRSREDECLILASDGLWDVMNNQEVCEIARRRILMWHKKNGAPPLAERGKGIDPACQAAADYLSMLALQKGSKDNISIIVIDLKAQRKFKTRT
# B1: PYL2: wild-type ABA receptor PYL2 (SEQ ID NO:3), overexpressed as control (protein, listed as Arabidopsis thaliana)
# chain: T4 sequence (O80992 1-190)
# modifications: thale cress PYR/PYL receptor, abscisic acid receptor PYL2, PYR1-like protein 2 (PYL2), ABI1-binding protein 6 (ABIP6), regulatory components of ABA receptor 14 (RCAR14), Bet v I allergen family protein, At2g26040, T19L18.15
# Tests used:
# PYR1 [1] = target: T1, PYR1; assay: Yeast two-hybrid wild-type PYR1-HAB1 interaction with added ABA; assay type: cell-based; conditions: wild-type PYR1, 10 μM ABA
# Procedure: 29 of 741 PYR1 mutants constructed, located in 10 different residues, increase the interaction between PYR1 and HAB1 in the absence of ABA, as measured using the yeast two hybrid assay (upper left panel). […] Each graph includes control wild-type PYR1 protein tested in the absence (diamonds) and presence (squares) of 10 μM ABA. Specific mutant proteins (triangles) were tested in the absence of ABA. […] Plotted in each graph is PP2C activity, expressed as % of control, which is the PP2C activity measured in the absence of ABA or receptor protein.
# To define sites that can be mutated to improve interactions between PYR/PYL receptors and PP2Cs, we conducted saturation mutagenesis on 39 residues in PYR1 that normally contact ABA (i.e., are within the ligand-binding pocket of PYR1) and/or PP2Cs (i.e., are within the PP2C binding interface). All 741 single-mutant variants possible at these functionally critical locations were constructed and then assayed for PP2C interactions using a yeast two-hybrid based assay. Saturation mutagenesis is a method that involves the construction of all possible amino acid variants at a given site (i.e., the generation of all 19 substitution mutants per site). […]
# PYR1 [2] = target: T2, PYR1; conditions: cited from earlier work
# PYL1 = target: T3, PYL1; conditions: cited from earlier work
# PYL2 = target: T4, PYL2; conditions: cited from earlier work
# PYL5 = target: T5, PYL5; conditions: cited from earlier work
# [3] = tested on: ABA-responsive gene transcription; conditions: in vivo; cited from earlier work
# HAB1 = target: T6, HAB1; assay: Yeast two-hybrid PYR1 mutant-HAB1 interaction assay (X-gal staining) in the absence of ABA; assay type: cell-based; conditions: no ABA
# From the text: To define sites that can be mutated to improve interactions between PYR/PYL receptors and PP2Cs, we conducted saturation mutagenesis on 39 residues in PYR1 that normally contact ABA (i.e., are within the ligand-binding pocket of PYR1) and/or PP2Cs (i.e., are within the PP2C binding interface). All 741 single-mutant variants possible at these functionally critical locations were constructed and then assayed for PP2C interactions using a yeast two-hybrid based assay. Saturation mutagenesis is a method that involves the construction of all possible amino acid variants at a given site (i.e., the generation of all 19 substitution mutants per site). We focused mutagenesis efforts on PYR1 because it is a well-characterized member of the PYR/PYL receptor family and has extensive structural data on which to guide mutagenesis studies, although it should be noted that the sites targeted display high sequence conservation among the PYR/PYL receptors (FIG. 1). Moreover, PYR1 is well suited for functional studies because its low basal activity allows its activation status to be studied using a yeast-based two-hybrid assay in which wild-type PYR1 will only bind to the PP2C HAB1 (or other PP2Cs) when the appropriate yeast cells are grown in the presence of ABA. […]
# Columbia seeds = assay: Seed dormancy / germination assay of 35S-driven transgenic lines, stratified vs unstratified; assay type: in vivo, Arabidopsis; conditions: 35S-driven overexpression in wild-type Columbia background
# Procedure: To investigate the effects of the PYL2^CA3 allele, we performed a number of physiological assays on wild-type and aba2-1 genotypes. Columbia (Col), 35S::PYL2, and 35S::PYL2^CA3 seed samples were divided into two portions; one portion was stratified on ⅓ MS plates for 6 days at 4° C. and the second portion was plated six days later ⅓ MS plates. Both samples were the transferred to room temperature (23° C.) and incubated in darkness. […] Each experiment was performed in triplicate and each point plotted represents the average of tests conducted using 40 to 70 seeds. […] Thus, overexpression of PYL2^CA3 activates the ABA-regulated seed dormancy pathway.
# In order to assay dormancy of seeds for Columbia, 35S::GFP-PYL2, and 35S::GFP-PYL2^CA3 were divided into two portions and surface sterilized using chlorine gas (prepared in situ using bleach and HCl). One portion was stratified on ⅓ MS agar plates for 6 days at 4° C. in darkness and the second portion, which was maintained at room temperature, was seeded six days later on the ⅓ MS agar plates; both samples were transferred to a 23° C. light-tight growth chamber and germination scored at 24 hour periods. The homozygous 35S::GFP-PYL2 and 35S::GFP-[…] seeds used in these experiments were ˜5- and ˜6-months post-harvest respectively at the time of the experiment shown in FIG. 12.
# aba2-1 mutant seeds = assay: Germination of aba2-1 background seeds on paclobutrazol or NaCl; assay type: in vivo, Arabidopsis; conditions: 35S-driven transgene, germination 72 hours
# From the text: As a further test of the ability of PYL2^CA3 to activate ABA signaling in vivo, we examined the ability of this allele to revert phenotypes caused by ABA deficiency, reasoning that effective activation of the ABA pathway should suppress phenotypes observed in the aba2 mutant. […] To test this, we examined the germination of various genotypes on paclobutrazol, an inhibitor of GA biosynthesis. Wild-type seed germination is blocked by paclobutrazol treatment but aba2 mutants germinate due to defects in ABA-induced seed dormancy. We also examined the germination of various genotypes in the presence of NaCl, which, like paclobutrazole, inhibits seed germination in an ABA- and aba2-dependent manner (Gonzalez-Guzman M. et al. (2002) Plant Cell 14(8):1833-1846; Leon-Kloosterziel K M, et al. (1996) Plant J 10 (4):655-661). […] Thus, expression of PYL2^CA3 in developing seeds is sufficient to activate an ABA-dependent physiological process despite the depleted ABA levels present in the aba2 background.
# Germination tests on paclobutrazol (Wako Chemicals, Japan) and NaCl were conducted as following. Columbia, aba2-1, aba2-1; 35S::GFP-PYL2 and aba2-1; 35S::GFP-PYL2″^3 seeds were surface sterilized and plated onto ⅓ MS agar media containing 25, 50 or 100 μM paclobutrazol or 0, 50, 200, 250 mM NaCl. Control wells contained ⅓ MS agar and 0.1% DMSO, the carrier solvent for paclobutrazol. The seeds were stratified for four days in darkness and then transferred to continuous illumination at room temperature (23° C.). Germination was assayed after 72 hours; seeds showing radicals at least ½ seed length or greater were scored as positive. Each experiment was performed in triplicate; experiments were performed on seeds that were ˜6-months post-harvest.
molecule,measurement,setting,value
"CC1=CC(=O)CC(C)(C)[C@@]1(O)/C=C/C(C)=C\C(=O)O [ABA, Abscisic acid]",interaction between PYR1 and HAB1,PYR1 [1],promotes a strong interaction
O=S(=O)(NCc1ccccn1)c1ccc(Br)c2ccccc12 [pyrabactin],agonist activity on PYR1,PYR1 [2],strong agonist activity
same,agonist activity on PYL1,PYL1,strong agonist activity
same,activity on PYL2,PYL2,weak partial-agonist/antagonist activity
same,activity on PYL5,PYL5,weak partial-agonist/antagonist activity
same,ABA-responsive gene transcription in seeds,[3],essentially activates the full complement of ABA-responsive gene transcription in seeds
PYR1: wild-type Arabidopsis ABA receptor PYR1 (SEQ ID NO:1),PYR1-HAB1 interaction in the absence of added ABA,HAB1,does not bind HAB1
B1,seed hyperdormancy (stratification dependent germination),Columbia seeds,not
same,NaCl resistance of aba2 mutant seed germination,aba2-1 mutant seeds,unable to suppress
same,paclobutrazol resistance of aba2 mutant seed germination,aba2-1 mutant seeds,unable to suppress
